This is an account of results in PMC12673578 (Molecular Pharmaceutics, 2025).

Values joined by “and” are separate entries in the source; they are usually repeats but may differ in a detail not shown here. Equal entries are not always repeated. Where two headings read alike, the source gives them in different places.

For one series, the system named is CES1 G143E variant. The following applies: second cited study; literature value; cited from earlier work.
For series [1] the following is noted: pooled fractions 0.5 mg/mL, clopidogrel 150 μM.
Experimental: The protein concentration was maintained at 0.5 mg/mL, and all incubations were conducted in triplicates in a water bath shaker at 37 °C with incubation volumes of 100 μL each. […] Samples were centrifuged at 10,000g for 5 min (4 °C), and the supernatants were collected and diluted 10-fold using a 75:25 (0.1% formic acid in ACN/0.1% formic acid in water) solution before being transferred to an LC-MS vial for analysis.
(§5) The samples were analyzed using an LC-MS/MS system consisting of microflow LC and Xevo-TQ-XS MS systems (Waters, Milford, MA). An Acquity UPLC HSS T3 C18 column (1.8 mm, 1 mm × 100 × 100 mm) equipped with a guard column (Vanguard precolumn, 1.8 mm, 2.1 × 5 mm) was used for the analysis. […] The mass spectrometer was operated in multiple reaction monitoring (MRM) and positive ionization modes with a cone voltage of 30 V using an electrospray ionization source.
For series [2] the following is noted: following oral administration; literature value; cited from earlier work.
A further series concerns the target rCYP2B6 (Homo sapiens, UniProt P20813). As for the experimental part: (§1) The samples were analyzed using an LC-MS/MS system consisting of microflow LC and Xevo-TQ-XS MS systems (Waters, Milford, MA). An Acquity UPLC HSS T3 C18 column ([…]) equipped with a guard column (Vanguard precolumn, […], 2.1 × 5 mm) was used for the analysis. […] The mass spectrometer was operated in multiple reaction monitoring (MRM) and positive ionization modes with a cone voltage of 30 V using an electrospray ionization source.
(§2) The relative expression factor (REF) for the rCYPs and rCES was calculated by using eq . 2 REF=CYPorCEScontentinpooledHLM(permgprotein)/CYPorCES content in the recombinant system (per mg protein)
(§3) 3 Rateofmetabolism=Vmax×S/Km+S
(§4) The CLint, total for each isoform was then multiplied with the respective REF values, and fraction metabolized (f m) is calculated as shown in eq . 4 fm,CYPi=ScaledCLint,total,2−oxo−clopidogrelCYPi/ScaledactivityCYPall×100

For the next series, the target named is rCYP2C19 (Homo sapiens, UniProt P33261). As for the experimental part:
as §1, §2, §3, §4

Another series concerns the target rCYP1A2 (Homo sapiens, UniProt P05177). As for the experimental part:
as §1, §2, §3, §4

The next series has as its target rCYP2C9 (Homo sapiens, UniProt P11712). As for the experimental part: as §1, §2, §3, §4
A further series deals with rCES1 (Homo sapiens, UniProt P23141). The following applies: rCES1 0.1 mg/mL, clopidogrel 0.9–240 μM, 30 min, 37 °C.
In the next series the test system is CYP3A. The following applies: ketoconazole coadministered, literature value, cited from earlier work.
Substrate in the series “not read”: COC(=O)[C@H](c1ccccc1Cl)N1CCc2sccc2C1
The series is described as follows: not read. The note with it: 5 min, 37 °C.

Setting [3] is: other: rCYP2C19, clopidogrel 0.3–160 μM.
Where [4] appears, read: other: rCYP1A2, clopidogrel 0.3–160 μM.
Where [5] appears, read: other: rCYP2C9, clopidogrel 0.3–160 μM.

Sequence of rCYP2B6 (P20813 whole entry): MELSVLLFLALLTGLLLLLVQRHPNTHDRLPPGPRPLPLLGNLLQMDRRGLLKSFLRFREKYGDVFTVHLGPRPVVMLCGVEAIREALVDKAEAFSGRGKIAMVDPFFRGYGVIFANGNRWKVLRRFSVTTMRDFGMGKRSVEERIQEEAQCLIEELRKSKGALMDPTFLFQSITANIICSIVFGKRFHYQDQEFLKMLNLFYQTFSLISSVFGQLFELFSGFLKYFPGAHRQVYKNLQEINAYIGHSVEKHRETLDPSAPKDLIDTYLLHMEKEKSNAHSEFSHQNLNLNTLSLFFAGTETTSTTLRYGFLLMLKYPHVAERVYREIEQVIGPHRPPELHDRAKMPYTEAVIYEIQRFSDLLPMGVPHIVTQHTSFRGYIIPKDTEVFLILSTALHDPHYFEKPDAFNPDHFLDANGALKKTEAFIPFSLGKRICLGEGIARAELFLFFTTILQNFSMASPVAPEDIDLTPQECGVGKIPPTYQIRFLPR
Sequence of rCES1 (P23141 18-567): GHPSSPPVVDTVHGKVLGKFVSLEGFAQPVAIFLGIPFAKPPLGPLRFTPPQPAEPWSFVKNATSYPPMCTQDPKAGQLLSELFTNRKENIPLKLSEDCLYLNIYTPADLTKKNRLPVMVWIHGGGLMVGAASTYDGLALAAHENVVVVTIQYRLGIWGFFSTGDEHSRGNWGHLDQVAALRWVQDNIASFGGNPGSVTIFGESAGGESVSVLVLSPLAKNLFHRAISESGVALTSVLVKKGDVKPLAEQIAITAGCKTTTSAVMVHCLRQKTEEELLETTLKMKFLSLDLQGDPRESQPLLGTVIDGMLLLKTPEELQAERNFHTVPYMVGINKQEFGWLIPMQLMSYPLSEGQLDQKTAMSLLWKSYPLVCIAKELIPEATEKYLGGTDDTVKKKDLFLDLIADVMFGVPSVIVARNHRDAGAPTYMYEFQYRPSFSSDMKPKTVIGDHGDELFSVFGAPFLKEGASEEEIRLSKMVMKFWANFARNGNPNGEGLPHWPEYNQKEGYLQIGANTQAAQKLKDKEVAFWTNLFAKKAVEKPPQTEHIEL
Experimental for rCES1: as §5

For the molecule `COC(=O)[C@H](c1ccccc1Cl)N1CCc2sccc2C1` [clopidogrel], the “Increase in platelet aggregation inhibition in G143E carriers compared to noncarriers” value in the series with CES1 G143E variant was 19%. For the same molecule, in series [1], the “CCA formation rate normalized with CES1 content (pmol/min/pmol CES1) in HLS9 versus HLM” value is given as “two-fold higher”. Moreover, the “Rate of formation of 2-oxo-clopidogrel in HLM (pmol/min/mg protein) versus HLS9” value in series [1] was “two-fold higher”. Besides, the “Rate of formation of CCA in HLM (pmol/min/mg protein) versus HLS9” value in series [1] is given as “two-fold higher”. Besides, the “Fraction of the drug absorbed” value in series [2] is reported as “approximately 50%”. The molecule also returned a CLint on rCYP2B6 of 15.8 μL/mg protein/min. Besides, the “CLint *REF” value on rCYP2B6 is on record as 0.09 μL/mg protein/min. For the same molecule, the f m on rCYP2B6 is 1.5%; at rCYP2C19 (fraction of 2-oxo-clopidogrel formation by CYP2C19), 0.1%; at rCYP1A2 (fraction of 2-oxo-clopidogrel formation by CYP1A2) it was 0.6%; on rCYP2C9 (fraction of 2-oxo-clopidogrel formation by CYP2C9), 40.3%. Moreover, at rCYP2B6 (recombinant enzyme), the “CLint (V max/K m)” value worked out at 1.8 μL/pmol P450/min. For the same molecule, the “K m of 2-oxo-clopidogrel formation” value was 13.8 ± 5.5 µM and 13.8 µM at rCYP2C19 (rCYP2C19); 17.0 µM on rCYP1A2 (rCYP1A2); 20.6 µM at rCYP2C9 (rCYP2C9). Also, the “K m for CCA formation” value on rCES1 is 14.92 ± 4.8 µM.
As to `CC(=O)N1CCN(c2ccc(OCC3COC(Cn4ccnc4)(c4ccc(Cl)cc4Cl)O3)cc2)CC1` (centres unmarked) [Ketoconazole, ketoconazole], the results for the “Reduction of AUC0–24 of clopidogrel active metabolite” value in the series on CYP3A (after 75 mg clopidogrel maintenance dose (MD)) and in the series on CYP3A (after 300 mg clopidogrel loading dose (LD)) were 29% and 22%, respectively. Besides, the “Decrease of C max of the active metabolite” value with CYP3A (following LD) is listed as 48%; in the series on CYP3A (following MD) it was 61%.

B1: rCYP2C19 (Homo sapiens) (protein)
chain: MDPFVVLVLCLSCLLLLSIWRQSSGRGKLPPGPTPLPVIGNILQIDIKDVSKSLTNLSKIYGPVFTLYFGLERMVVLHGYEVVKEALIDLGEEFSGRGHFPLAERANRGFGIVFSNGKRWKEIRRFSLMTLRNFGMGKRSIEDRVQEEARCLVEELRKTKASPCDPTFILGCAPCNVICSIIFQKRFDYKDQQFLNLMEKLNENIRIVSTPWIQICNNFPTIIDYFPGTHNKLLKNLAFMESDILEKVKEHQESMDINNPRDFIDCFLIKMEKEKQNQQSEFTIENLVITAADLLGAGTETTSTTLRYALLLLLKHPEVTAKVQEEIERVIGRNRSPCMQDRGHMPYTDAVVHEVQRYIDLIPTSLPHAVTCDVKFRNYLIPKGTTILTSLTSVLHDNKEFPNPEMFDPRHFLDEGGNFKKSNYFMPFSAGKRICVGEGLARMELFLFLTFILQNFNLKSLIDPKDLDTTPVVNGFASVPPFYQLCFIPV
Broadly, the kcat is the maximal rate divided by the concentration of active sites. Turning to B1, in the series “not read” (setting [3]), the kcat stood at 0.36 s⁻¹ and the kcat/Km is given as 1.6 μL/pmol P450/min.

B2: rCYP1A2 (Homo sapiens) (protein)
chain: MALSQSVPFSATELLLASAIFCLVFWVLKGLRPRVPKGLKSPPEPWGWPLLGHVLTLGKNPHLALSRMSQRYGDVLQIRIGSTPVLVLSRLDTIRQALVRQGDDFKGRPDLYTSTLITDGQSLTFSTDSGPVWAARRRLAQNALNTFSIASDPASSSSCYLEEHVSKEAKALISRLQELMAGPGHFDPYNQVVVSVANVIGAMCFGQHFPESSDEMLSLVKNTHEFVETASSGNPLDFFPILRYLPNPALQRFKAFNQRFLWFLQKTVQEHYQDFDKNSVRDITGALFKHSKKGPRASGNLIPQEKIVNLVNDIFGAGFDTVTTAISWSLMYLVTKPEIQRKIQKELDTVIGRERRPRLSDRPQLPYLEAFILETFRHSSFLPFTIPHSTTRDTTLNGFYIPKKCCVFVNQWQVNHDPELWEDPSEFRPERFLTADGTAINKPLSEKMMLFGMGKRRCIGEVLAKWEIFLFLAILLQQLEFSVPPGVKVDLTPIYGLTMKHARCEHVQARLRFSIN
For the molecule B2, in “not read” (setting [4]), the kcat was 0.258 s⁻¹ and the kcat/Km was found to be 0.9 μL/pmol P450/min.

B3: rCYP2C9 (Homo sapiens) (protein)
chain: MDSLVVLVLCLSCLLLLSLWRQSSGRGKLPPGPTPLPVIGNILQIGIKDISKSLTNLSKVYGPVFTLYFGLKPIVVLHGYEAVKEALIDLGEEFSGRGIFPLAERANRGFGIVFSNGKKWKEIRRFSLMTLRNFGMGKRSIEDRVQEEARCLVEELRKTKASPCDPTFILGCAPCNVICSIIFHKRFDYKDQQFLNLMEKLNENIKILSSPWIQICNNFSPIIDYFPGTHNKLLKNVAFMKSYILEKVKEHQESMDMNNPQDFIDCFLMKMEKEKHNQPSEFTIESLENTAVDLFGAGTETTSTTLRYALLLLLKHPEVTAKVQEEIERVIGRNRSPCMQDRSHMPYTDAVVHEVQRYIDLLPTSLPHAVTCDIKFRNYLIPKGTTILISLTSVLHDNKEFPNPEMFDPHHFLDEGGNFKKSKYFMPFSAGKRICVGEALAGMELFLFLTSILQNFNLKSLVDPKNLDTTPVVNGFASVPPFYQLCFIPV
As to B3, in the series “not read” (setting [5]), the kcat stood at 0.387 s⁻¹ and the kcat/Km came out at 1.1 μL/pmol P450/min.
